# Assay results taken from patent US20090023630A1, “Methods and Means for Use in Diagnostics and Treatment of Diabetes” (priority 2005, published 2009).
# Read-outs that look alike come from different tables or passages of the source. Ends that are not written are not given here.
# Target: HLA-A*0201 (Homo sapiens, UniProt P04439, D140Y/D185E/D98H/E176V/E277Q/G131W/G231S/I119V/I121R/I166T/I218V/L300P/L318F/N151K/N90K/P208A/P217A/Q86G/Q94H/R138H/R169H/T345S)
# Assay: Peptide-HLA binding (competition with Fl-labeled HLA-A*0201 binding peptide)
# Procedure: Peptide binding was assessed as described (21). […] HLA-bound and non-bound Fl-labeled peptides were separated by HPLC gel permeation chromatography with fluorescence detection. The concentration at which the test peptide reduced the amount of HLA-bound Fl-labeled peptide by 50% (IC50) was calculated using non-linear regression analysis. To select candidate HLA-A*0201 binding peptides from the insulin B chain, the molecule was screened for HLA-A*0201 binding motif containing peptides with a combination of two known binding prediction algorithms (18).
# [1] = peptide concentration needed to inhibit binding of FL-labeled reference peptide for 50%, read-out: IC50 (binding affinity for HLA-A*0201)
Molecule,IC50 [1],IC50
CC(C)C[C@H](NC(=O)[C@H](C)N)C(=O)N[C@@H](Cc1ccc(O)cc1)C(=O)N[C@@H](CC(C)C)C(=O)N[C@H](C(=O)N[C@@H](CS)C(=O)NCC(=O)N[C@@H](CCC(=O)O)C(=O)N[C@@H](CCCNC(=N)N)C(=O)NCC(=O)O)C(C)C [Peptide 14-23],> 100000 nM,–
ALYLVCGER [Peptide 14-22],–,90200 nM
ALYLVCGERGF [Peptide 14-24],2260 nM,–
GSHLVEALYLV [Peptide 8-18],3730 nM,–
"HLCGSGLVEAL [Peptide 5-15, HLCGSGLVEAL]",440 nM,–
HLCGSHLVEA [Peptide 5-14],–,60 nM
HLVEALYLVC [Peptide 10-19],1750 nM,–
HLVEALYLVCG [Peptide 10-20],–,190 nM
LVEALYLVC [Peptide 11-19],–,3600 nM
QHLCGSHLV [Peptide 4-12],9120 nM,–
SHLVEALYL [Peptide 9-17],59500 nM,–
SHLVEALYLV [Peptide 9-18],–,1370 nM
YLVCGERGFF [Peptide 16-25],2300 nM,–
YLVCGERGFFY [Peptide 16-26],8590 nM,–
